Laboratory results: the NIST ThermoML archive (doi:10.1016/j.jct.2013.09.024)

Experiment: xn = mol fraction of the nth substance listed
Settings: 283.15 K, Liquid, Vibrating tube method

CC1(C)C(=O)[C@]2(C)CC[C@H]1C2 [(-)-fenchone] + CCO
mass density [kg/m3]
Settings | 101 kPa | 20000 kPa | 25000 kPa | 30000 kPa | 35000 kPa | 40000 kPa
x1 = 0.0481 | 817.48 | – | – | – | – | –
x1 = 0.051 | – | 833.5 | 837 | 840.3 | 843.4 | 846.5
x1 = 0.0985 | 834.96 | – | – | – | – | –
x1 = 0.0992 | – | 849.7 | 853.1 | 856.3 | 859.4 | 862.5
x1 = 0.199 | – | 876.6 | 879.9 | 883 | 886 | 889
x1 = 0.2002 | 862.89 | – | – | – | – | –
x1 = 0.3002 | 883.74 | – | – | – | – | –
x1 = 0.301 | – | 897.5 | 900.6 | 903.7 | 906.6 | 909.5
x1 = 0.3968 | – | 913 | 916.1 | 919.1 | 922 | 924.8
x1 = 0.4031 | 900.59 | – | – | – | – | –
x1 = 0.4976 | – | 926.2 | 929.2 | 932.2 | 935 | 937.8
x1 = 0.5012 | 913.56 | – | – | – | – | –
x1 = 0.5924 | – | 936.5 | 939.4 | 942.3 | 945.2 | 947.9
x1 = 0.5976 | 924.09 | – | – | – | – | –
x1 = 0.6956 | – | 945.8 | 948.7 | 951.6 | 954.4 | 957.1
x1 = 0.697 | 933.16 | – | – | – | – | –
x1 = 0.7897 | 940.31 | – | – | – | – | –
x1 = 0.7942 | – | 953.4 | 956.3 | 959.1 | 961.9 | 964.6
x1 = 0.8929 | – | 959.7 | 962.6 | 965.5 | 968.2 | 970.9
x1 = 0.899 | 947.57 | – | – | – | – | –
x1 = 0.9454 | – | 962.8 | 965.7 | 968.5 | 971.2 | 973.8
x1 = 0.9486 | 950.46 | – | – | – | – | –
x1 = 1 | 953.27 | 965.6 | 968.5 | 971.3 | 974 | 976.6
